The text below walks through data of PMC12040169 (PLOS Biology, 2025).

The structures appear in SMILES notation.

One may read the viability as a read-out of living cells in per cent, often relative to untreated cells.

The data set in a line: in vitro. The following applies: human, hela cells, % viability.

Take `Cc1cc(NC(=O)C2CCN(CC3CCCO3)CC2)no1` (stereo not shown) [CBK305544]: the viability at 28.5 h, 10 µM is 110%.

Regarding `Cc1cc(NC(=O)C2CCN(C(=O)c3cnc(N)c(Cl)c3)CC2)no1` [CBK305545], the viability at 28.5 h, 10 µM worked out at 110%. Turning to `Cc1cc(C)n(CC(=O)NC2CCCOc3c(F)cccc32)n1` (stereo not shown) [CBK305553], the viability at 28.5 h, 10 µM came to 106%. Regarding `Cc1ncsc1C(=O)NCc1ccc(S(=O)(=O)N2CCCCC2)cc1` [CBK305556], the viability at 28.5 h, 10 µM was 89.9%. As to `Cc1cc(CNC(=O)C2CC(=O)N(Cc3ccccn3)C2)ccc1F` (stereo not shown) [CBK305557], the viability at 28.5 h, 10 µM turned out to be 77.3%. With `CCC(Oc1ccccc1F)C(=O)Nc1cc(C)on1` (stereo not shown) [CBK305558], the viability at 28.5 h, 10 µM was determined as 98.5%. Regarding `CCCS(=O)(=O)N1CCC(C(=O)NCc2ccc(Cl)cc2Cl)CC1` [CBK305559], the viability at 28.5 h, 10 µM came to 102%. For the compound `Cc1cc(N2CCN(C(=O)Cc3cccs3)CC2)nc(C(C)C)n1` [CBK305562], the viability at 28.5 h, 10 µM was found to be 88.1%. Turning to `COC(=O)c1cccc(OCC(O)Cn2nc(C)c(C)c(C#N)c2=O)c1` (stereo not shown) [CBK305563], the viability at 28.5 h, 10 µM was 85.3%. The same measure for `CN(C)C(CNC(=O)Nc1cccc(C(=O)NC2CC2)c1)c1cccs1` (stereo not shown) [CBK305565]: 115%; for `Cc1noc(CN2CCN(c3ccc4nnc(C(F)(F)F)n4n3)CC2)n1` [CBK305566]: 93.3%; for `CC(=O)Nc1ccc(OCC(O)Cn2ncc3ccccc3c2=O)cc1` (stereo not shown) [CBK305567]: 105%. The same measure for `O=C1NC2(CCCCCC2)C(=O)N1Cc1cnn(-c2ccccc2)n1` [CBK305571]: 100%; for `Cc1nn(-c2ccccc2)c(CN2C(=O)NC3(CCCC3)C2=O)c1C#N` [CBK305572]: 81.4%; for `CCOC(=O)C1CCCN(C(=O)Cn2ncc(Cl)c(Cl)c2=O)C1` (stereo not shown) [CBK305573]: 47.7%.

In the case of `COc1ccc(OCC(O)Cn2c(CCCO)nc3ccccc32)cc1` (stereo not shown) [CBK305579], the viability at 28.5 h, 10 µM amounted to 101%. With `COCCn1c(SC(C)C(=O)N2CCOCC2)nc2cc(Cl)ccc21` (stereo not shown) [CBK305580], the viability at 28.5 h, 10 µM is 94.8%. For `CCCN1CCC(NC(=O)Cn2nnc3ccccc3c2=O)CC1` [CBK305581], the viability at 28.5 h, 10 µM was 102%. In the case of `CCCc1nnc(SCC(=O)Nc2ccc(CN3CCOCC3)cc2)[nH]1` [CBK305583], the viability at 28.5 h, 10 µM stood at 82.4%. On to `O=C(NC1CCN(Cn2nnc3ccccc3c2=O)CC1)C1CC1` [CBK305584], for which the viability at 28.5 h, 10 µM was 82.3%.

Turning to `CCOC(=O)c1cnn2c(O)cc(CN3CCCCC3)nc12` [CBK305585], the viability at 28.5 h, 10 µM stood at 101%. For `CS(=O)(=O)NCC1CCCCN1Cc1ccc(-n2cccn2)cc1` (stereo not shown) [CBK305587], the viability at 28.5 h, 10 µM was determined as 91.9%. The same measure for `CC(=O)N1CCN(CC(O)Cn2c3ccccc3c3ccccc32)CC1` (stereo not shown) [CBK305588]: 102%; for `O=C(Cn1nnc2ccccc2c1=O)NC1CCN2CCCCC12` (stereo not shown) [CBK305589]: 105%. Consider `Cc1cc(C)n(CC(=O)Nc2nc(CN3CCC(C)CC3)cs2)n1` [CBK305592], for which the viability at 28.5 h, 10 µM stood at 101%. On to `COc1ncccc1CNC(=O)Cn1ccc(=O)[nH]c1=O` [CBK305596], for which the viability at 28.5 h, 10 µM stood at 99.9%. As for `COc1ccccc1-c1noc(CN2CCCC(C(F)(F)F)C2)n1` (stereo not shown) [CBK305598], the viability at 28.5 h, 10 µM was found to be 93.6%.

Turning to `Cc1cc(NC(=O)CN(C)Cc2ccc(Br)cc2)on1` [CBK305599], the viability at 28.5 h, 10 µM was 97.3%. On to `N#Cc1ccc(C(=O)NCC2(N3CCOCC3)CCSC2)cc1` (stereo not shown) [CBK305602], for which the viability at 28.5 h, 10 µM was 95.3%. Regarding `CCc1nn2c(=O)cc(CNc3ccccc3CN(C)C(C)=O)nc2s1` [CBK305604], the viability at 28.5 h, 10 µM was 114%. As to `CC(Cn1cccn1)NS(=O)(=O)c1ccc(N2CCCC2=O)cc1` (stereo not shown) [CBK305606], the viability at 28.5 h, 10 µM came to 83.7%. As for `CCC1CCCCN1C(=O)CCc1c(C)nc(-c2ccccc2)[nH]c1=O` (stereo not shown) [CBK305608], the viability at 28.5 h, 10 µM stood at 87.5%.

With `Cc1oc(NC(=O)CN(C)Cc2cccc(F)c2)c(C#N)c1C` [CBK305609], the viability at 28.5 h, 10 µM worked out at 90.9%. For `Cc1cc(NC(=O)CN2CCN(Cc3ccc4c(c3)CCO4)CC2)on1` [CBK305610], the viability at 28.5 h, 10 µM was determined as 92.5%. The same measure for `Cc1nc(CN2CCN(C(=O)NCCc3cnn(C)c3)CC2)cs1` [CBK305614]: 81.3%; for `CC(=O)Nc1ccc(OCC(O)Cn2nc(-c3ccco3)oc2=O)cc1` (stereo not shown) [CBK305615]: 97.9%. On to `Cc1cc(C)n2ncc(C(=O)N3CCCC3c3ccsc3)c2n1` (stereo not shown) [CBK305616], for which the viability at 28.5 h, 10 µM turned out to be 94.6%. As to `CC(C)(C)OC(=O)N1CCCC(C(=O)NC2CCCc3ccccc32)C1` (stereo not shown) [CBK305617], the viability at 28.5 h, 10 µM amounted to 93.2%. For `COc1cccc(CC(=O)NCC(c2cccs2)N2CCOCC2)c1` (stereo not shown) [CBK305621], the viability at 28.5 h, 10 µM was determined as 95.9%.

For `Cc1cc(NC(=O)CN(C)Cc2cnn(-c3ccccc3)c2)on1` [CBK305622], the viability at 28.5 h, 10 µM amounted to 92.5%. The same measure for `CS(=O)(=O)NC1CCCN(c2nc(-c3ccsc3)nc3ccccc23)C1` (stereo not shown) [CBK305623]: 99.1%.

As to `CCOC(=O)c1cnn2c(O)cc(CN(Cc3cccs3)C3CC3)nc12` [CBK305625], the viability at 28.5 h, 10 µM came to 96.9%. With `Cn1cc(-c2nc(C(=O)N3CCN(c4ncccn4)CC3)cs2)cn1` [CBK305626], the viability at 28.5 h, 10 µM stood at 91%.

Take `Cc1cc(CN2CCN(C(=O)NCc3cccnc3)CC2)on1` [CBK305627]: the viability at 28.5 h, 10 µM is 114%. The same measure for `Cc1cc(C)n(CC(C)CNC(=O)Cc2csc(-c3ccco3)n2)n1` (stereo not shown) [CBK305628]: 103%; for `Cc1cc(C2CCCN2C(=O)c2cnn3c(C)cc(C)nc23)on1` (stereo not shown) [CBK305634]: 109%. Take `Cc1cc(CN2CCN(C(=O)NCCc3ccccn3)CC2)on1` [CBK305637]: the viability at 28.5 h, 10 µM amounted to 80%. On to `Cc1ccccc1Nc1nc(N)nc(CN2CCCC2C(=O)N(C)C)n1` (stereo not shown) [CBK305638], for which the viability at 28.5 h, 10 µM amounted to 81%. The same measure for `Cc1nc(CNC(=O)NC2CCCN(c3ncccn3)C2)cs1` (stereo not shown) [CBK305640]: 95.3%; for `Cc1cc(CN2CCN(C(C)c3nc(C(C)(C)C)no3)CC2)no1` (stereo not shown) [CBK305641]: 97.7%; for `Cc1ccc(CNC(=O)Cc2csc(N3CCCC3=O)n2)n1C` [CBK305642]: 98.6%. The same measure for `CCN(Cc1ccc(C#N)cc1F)C(=O)NC(C)c1cnn(C)c1C` (stereo not shown) [CBK305643]: 108%; for `Cc1cc(NC(=O)CN2CCN(Cc3ccccc3C#N)CC2)no1` [CBK305644]: 77.3%. `O=C(NCc1cc[nH]n1)N1CCCN(Cc2cccs2)CC1` [CBK305645]: the viability at 28.5 h, 10 µM was 82%.

For `Cc1ccccc1Nc1nc(N)nc(CN2CCOCC2)n1` [CBK305646], the viability at 28.5 h, 10 µM is 87.5%. The same measure for `CCOC(=O)c1cnn2c(O)cc(CN3CCCC3c3ccsc3)nc12` (stereo not shown) [CBK305647]: 96.1%.

Turning to `CC(C)(C)OC(=O)N1CCN(C(=O)c2cc(-c3cccnc3)on2)CC1` [CBK305648], the viability at 28.5 h, 10 µM is 88.7%. Regarding `Cc1cccc(CN2CCC(NC(=O)Cn3cnnn3)CC2)c1` [CBK305649], the viability at 28.5 h, 10 µM turned out to be 95.9%. For `CS(=O)(=O)N1CCc2cc(-c3csc(NCC(F)(F)F)n3)ccc21` [CBK305650], the viability at 28.5 h, 10 µM came to 95.4%. The same measure for `CCN(CC1CCOC1)C(=O)c1cn2ccccc2n1` (stereo not shown) [CBK305653]: 83.5%; for `Cc1sc2ncn(CC(=O)NCc3nnc4n3CCC4)c(=O)c2c1C` [CBK305654]: 93.8%. On to `O=C(NCC(=O)N1CCCC1c1cccs1)c1cccc(Br)c1` (stereo not shown) [CBK305655], for which the viability at 28.5 h, 10 µM was determined as 99.2%. Take `Cn1cc(CCNC(=O)Nc2ccc(N3CCCC3)nc2)cn1` [CBK305659]: the viability at 28.5 h, 10 µM came to 92.3%. Consider `CCN(C(C)COC)S(=O)(=O)c1ccc(-n2ncc(Cl)c(Cl)c2=O)cc1` (stereo not shown) [CBK305662], for which the viability at 28.5 h, 10 µM was 37%. On to `CCN1CCC(CNS(=O)(=O)c2ccc(N3CCCC3=O)cc2)CC1` [CBK305663], for which the viability at 28.5 h, 10 µM worked out at 101%. In the case of `Cn1cc(C(=O)NC2CCN(C(=O)c3ccc4c(c3)CCC4)CC2)cn1` [CBK305664], the viability at 28.5 h, 10 µM was 97.8%.

As for `Cc1cccc(CN2CCC(NC(=O)Cn3ccccc3=O)CC2)c1` [CBK305667], the viability at 28.5 h, 10 µM worked out at 111%. Take `Cc1ccc2c(c1)CCCN2C(=O)c1cnc2c(c1)c(C)nn2C` [CBK305670]: the viability at 28.5 h, 10 µM stood at 96%. The same measure for `Cc1nc(CNc2ccc3nnc(C(F)(F)F)n3n2)cs1` [CBK305674]: 91.6%; for `Cc1cc(C)n2ncc(C(=O)NCC(c3cccs3)N3CCCC3)c2n1` (stereo not shown) [CBK305675]: 85.3%. For the compound `COC(=O)c1ccc(OCCn2nc(C)c(C)c(C#N)c2=O)cc1` [CBK305676], the viability at 28.5 h, 10 µM amounted to 69.5%. Turning to `CCOC(=O)c1cnn2c(O)cc(CN3CCc4ccccc4C3)nc12` [CBK305679], the viability at 28.5 h, 10 µM was 97.2%.

For `CCOC(=O)c1cnn2c(O)cc(CN3CCc4sccc4C3)nc12` [CBK305680], the viability at 28.5 h, 10 µM was determined as 106%. Regarding `Cc1ccc(Cl)c(OC(C)C(=O)NCC2(N3CCOCC3)CCSC2)c1` (stereo not shown) [CBK305681], the viability at 28.5 h, 10 µM is 110%. The same measure for `COc1cccc(CC(=O)NCCNc2cccc(F)c2C#N)c1` [CBK305684]: 78.5%; for `N#Cc1cccc(OCC(=O)NCC2(N3CCOCC3)CCSC2)c1` (stereo not shown) [CBK305685]: 86.3%; for `O=C(Cn1cc(Br)ccc1=O)NC1CCN(Cc2ccccn2)CC1` [CBK305686]: 92.2%. For the compound `CCCC(=O)Nc1ccc(-c2csc(CCN3CCOC3=O)n2)cc1` [CBK305687], the viability at 28.5 h, 10 µM was determined as 97%.

As to `Cc1cc(NC(=O)C2CCN(c3ncccc3C#N)CC2)no1` [CBK305689], the viability at 28.5 h, 10 µM was found to be 88.3%. With `Cc1nn(C)c(C)c1CCC(=O)OCc1cc(=O)n2ccccc2n1` [CBK305690], the viability at 28.5 h, 10 µM stood at 90.8%. Regarding `Cn1cc(CCNC(=O)N2CCN(Cc3ccsc3)CC2)cn1` [CBK305692], the viability at 28.5 h, 10 µM turned out to be 88.6%. With `Cc1cc(C)n(CC(=O)NC(CC(=O)O)c2ccccc2Cl)n1` (stereo not shown) [CBK305695], the viability at 28.5 h, 10 µM was 106%.
